{
  "source": "patent US20240423942A1",
  "about": "“PHARMACEUTICAL COMPOSITION INCLUDING RETINOIC ACID AND CARBOHYDRATE AND USE THEREOF” (Mastery Biotech CO., LTD., priority 2022, published 2024)",
  "key": {"SARS-COV-2 PLpro": {"target": "SARS-COV-2 PLpro (Severe acute respiratory syndrome coronavirus 2, UniProt P0DTD1)", "format": "biochemical", "conditions": "Example 1; 50 μM; FIG. 2 and Table 2", "method": "The enzymatic activity of SARS-COV-2 PLpro obtained above was measured by a colorimetry-based peptide cleavage assay, using the 6-mer peptide substrate, FRLKGG-para-nitroanilide (FG6-pNA) (purity 97% by HPLC; GL Biochem Ltd., Shanghai, China). In the cleavage assay, the 6-mer peptide substrate was cleaved at the Gly-pNA bond to release free pNA, which turned the color of the solution to yellow. The enzymatic activity was determined by continuously monitoring the absorbance at 405 nm (A405) using a 96-well microplate spectrophotometer (Epoch™ 2, Biotek) at 30° C.\nAn enzyme inhibition assay was performed in a 96-well microplate. Each of the wells of the microplate contained a 50 mM phosphate buffer (pH 7.4). SARS-COV-2 PLPro obtained above (0.9 μM) was added into the respective well to form an enzyme solution. […]\n20 μL of FG6-pNA (1.2 mM) described above was added into the test mixture of the respective group to initiate the enzyme reaction. […] The enzymatic activity was determined by continuously monitoring the absorbance at 405 nm (A405) using a 96-well microplate spectrophotometer (Epoch™ 2, Biotek). The reaction rate was calculated accordingly, wherein the reaction rate is the slope of the absorbance A405 versus time (seconds) for a total reaction time of 300 seconds.\nThe inhibition percentage was calculated using the following equation: […]"}, "AsPC-1 cancer cell line": {"system": "AsPC-1 cancer cell line", "assay": "In vitro cytotoxicity, Alamar blue cell viability, AsPC-1", "format": "cell-based", "conditions": "24 hr"}, "[1]": {"system": "MDA-MB-231 cancer cell line", "assay": "In vitro cytotoxicity, Alamar blue cell viability, MDA-MB-231", "format": "cell-based", "conditions": "24 hr"}, "SKOV-3 cancer cell line": {"system": "SKOV-3 cancer cell line", "assay": "In vitro cytotoxicity, Alamar blue cell viability, SK-OV-3", "format": "cell-based", "conditions": "24 hr"}, "HCT-116 cancer cell line": {"system": "HCT-116 cancer cell line", "assay": "In vitro cytotoxicity, Alamar blue cell viability, HCT-116", "format": "cell-based", "conditions": "24 hr"}, "H460 cancer cell line": {"system": "H460 cancer cell line", "assay": "In vitro cytotoxicity, Alamar blue cell viability, NCI-H460", "format": "cell-based", "conditions": "24 hr"}, "A549 cancer cell line": {"system": "A549 cancer cell line", "assay": "In vitro cytotoxicity, Alamar blue cell viability, A549", "format": "cell-based", "conditions": "24 hr"}, "SARS-COV-2": {"system": "SARS-COV-2", "conditions": "Example 2; intranasal 0.35 mg/kg twice daily, 3-day treatment; FIG. 3", "from_the_text": "Golden Syrian hamsters (aged 5-6 weeks old and having an average weight of about 100 g) were obtained from the National Laboratory Animal Center (Taipei, Taiwan). The hamsters were housed in an animal room under specific-pathogen-free (SPF) conditions commonly applied in the art. Furthermore, water and feed were provided ad libitum for all the hamsters. All the experiments involving the hamsters were consigned to and reviewed and approved by the Institutional Animal Care and Use Committee (IACUC) of Academia Sinica (Taiwan).\nThe hamsters were infected with SARS-COV-2 (obtained from P3 Lab, the Genomics Research Center, Academia Sinica; WuHan wild type) in phosphate buffered saline (PBS) through intranasal inoculation at 1×10^4 plaque-forming units (PFU) on 12:00 PM so as to establish a SARS-CoV-2 animal model. […]\nAfter the 3-day treatment, the hamsters were sacrificed, and the lungs thereof were collected for live viral load measurement by TCID50 assay in Vero E6 cells. The virus titer was determined in terms of the 50% tissue culture infectious dose (TCID50) using the Reed-Muench method. […]"}, "Huh-7 cancer cell line": {"system": "Huh-7 cancer cell line", "assay": "In vitro cytotoxicity, Alamar blue cell viability, Huh-7", "format": "cell-based", "conditions": "24 hr"}},
  "data": [
    {"smiles": "CC1=C(/C=C/C(C)=C/C=C/C(C)=C\\C(=O)NCCCO[C@@H]2O[C@H](CO)[C@H](O)[C@H](O)[C@H]2O)C(C)(C)CCC1", "note": "[Galactose-modified isotretinoin, (2Z,4E,6E,8E)-3,7-Dimethyl-N-(3-(((2R,3R,4S,5R,6R)-3,4,5-Trihydroxy-6-(Hydroxymethyl)Tetrahydro-2H-Pyran-2-Yl)Oxy) Propyl)-9-(2,6,6-Trimethylcyclohex-1-En-1-Yl) Nona-2,4,6,8-Tetraenamide]", "values": [
      {"measurement": "inhibition rate compared with Comparative_1 (isotretinoin only)", "setting": "SARS-COV-2 PLpro", "value": "significantly higher"},
      {"measurement": "cell viability", "setting": "AsPC-1 cancer cell line; AsPC-1, FIG. 4", "value": "significantly reduce"},
      {"measurement": "IC50", "setting": "AsPC-1 cancer cell line; Homo sapiens, ASPC1, AsPC-1, Pancreatic Cancer", "value": 23, "unit": "µM"},
      {"measurement": "IC50", "setting": "[1]; Homo sapiens, MDA-MB-231, Breast Cancer", "value": 116, "unit": "µM"},
      {"measurement": "cell viability", "setting": "[1]; MDA-MB-231, FIG. 5", "value": "significantly reduce"},
      {"measurement": "IC50", "setting": "SKOV-3 cancer cell line; Homo sapiens, SK-OV-3, Ovarian Cancer", "value": 13.8, "unit": "µM"},
      {"measurement": "cell viability", "setting": "SKOV-3 cancer cell line; SKOV-3, FIG. 8", "value": "significantly reduce"},
      {"measurement": "cell viability", "setting": "HCT-116 cancer cell line; HCT-116, FIG. 6", "value": "significantly reduce"},
      {"measurement": "IC50", "setting": "HCT-116 cancer cell line; Homo sapiens, HCT-116, Colon Cancer", "value": 123, "unit": "µM"},
      {"measurement": "cell viability", "setting": "H460 cancer cell line; H460, FIG. 10", "value": "significantly reduce"},
      {"measurement": "IC50", "setting": "H460 cancer cell line; Homo sapiens, NCI-H460, Non-small Cell Lung Cancer", "value": 22.9, "unit": "µM"},
      {"measurement": "cell viability", "setting": "A549 cancer cell line; A549, FIG. 9", "value": "significantly reduce"},
      {"measurement": "IC50", "setting": "A549 cancer cell line; Homo sapiens, A549, Non-small Cell Lung Cancer", "value": 21.9, "unit": "µM"},
      {"measurement": "TCID50 (lung virus titer) compared with isotretinoin and liposome-encapsulated isotretinoin", "setting": "SARS-COV-2", "value": "significantly lower"},
      {"measurement": "IC50", "setting": "Huh-7 cancer cell line; Homo sapiens, Huh-7, Liver Cancer", "value": 77.5, "unit": "µM"},
      {"measurement": "cell viability", "setting": "Huh-7 cancer cell line; Huh-7, FIG. 7", "value": "significantly reduce"}
    ]}
  ]
}
